Several values for one entry are separate records, joined by “and”; a condition that tells them apart may be missing. Equal values may be shown once. Inconclusive results and toxic doses are left out. Cut-off read from the data, not from the text of the source: active = T/C of 150% or more; inactive = T/C below 125%.
Test system: L1210 leukemia ip in BDF1 mice, survival T/C
Assay: NCI In Vivo Anticancer Drug Screen. Data for tumor model L1210 Leukemia (intraperitoneal) in B6D2F1 (BDF1) mice
Conditions: endpoint: mean survival time, higher = longer survival
Method in brief: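 Each compound was tested against a transplantable tumor grown in mice. The endpoint was survival, with treated animals benchmarked against vehicle controls as a simple ratio.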

[1] = dose: 25.0 mg/kg/injection, schedule: Q04DX003 (ip), vehicle: saline
[2] = dose: 50.0 mg/kg/injection, schedule: Q04DX003 (ip), vehicle: saline
[3] = dose: 100.0 mg/kg/injection, schedule: Q04DX003 (ip), vehicle: saline with Tween-80
[4] = dose: 100.0 mg/kg/injection, schedule: Q04DX003 (ip), vehicle: saline
[5] = dose: 222.0 mg/kg/injection, schedule: Q01DX Z (ip), vehicle: methylcellulose (MC)
[6] = dose: 333.0 mg/kg/injection, schedule: Q01DX Z (ip), vehicle: methylcellulose (MC)
[7] = dose: 500.0 mg/kg/injection, schedule: Q01DX Z (ip), vehicle: methylcellulose (MC)
[8] = dose: 100.0 mg/kg/injection, schedule: Q01DX009 (ip), vehicle: Klucel (hydroxypropylcellulose) (HPC)
[9] = dose: 100.0 mg/kg/injection, schedule: Q04DX003 (ip), vehicle: Klucel (hydroxypropylcellulose) (HPC)
[10] = dose: 200.0 mg/kg/injection, schedule: Q01DX009 (ip), vehicle: Klucel (hydroxypropylcellulose) (HPC)
[11] = dose: 200.0 mg/kg/injection, schedule: Q04DX003 (ip), vehicle: Klucel (hydroxypropylcellulose) (HPC)
[12] = dose: 400.0 mg/kg/injection, schedule: Q04DX003 (ip), vehicle: Klucel (hydroxypropylcellulose) (HPC)
[13] = dose: 200.0 mg/kg/injection, schedule: Q04DX003 (ip), vehicle: saline with Tween-80
[14] = dose: 400.0 mg/kg/injection, schedule: Q04DX003 (ip), vehicle: saline with Tween-80
[15] = dose: 100.0 mg/kg/injection, schedule: Q01DX001 (ip), vehicle: saline
[16] = dose: 200.0 mg/kg/injection, schedule: Q01DX001 (ip), vehicle: saline
[17] = dose: 400.0 mg/kg/injection, schedule: Q01DX001 (ip), vehicle: saline
[18] = dose: 50.0 mg/kg/injection, schedule: Q01DX001 (ip), vehicle: saline
[19] = dose: 200.0 mg/kg/injection, schedule: Q04DX003 (ip), vehicle: saline
[20] = dose: 400.0 mg/kg/injection, schedule: Q01DX009 (ip), vehicle: Klucel (hydroxypropylcellulose) (HPC)
[21] = dose: 100.0 mg/kg/injection, schedule: Q04DX002 (ip), vehicle: Klucel (hydroxypropylcellulose) (HPC)
[22] = dose: 200.0 mg/kg/injection, schedule: Q04DX002 (ip), vehicle: Klucel (hydroxypropylcellulose) (HPC)
[23] = dose: 400.0 mg/kg/injection, schedule: Q04DX002 (ip), vehicle: Klucel (hydroxypropylcellulose) (HPC)
[24] = dose: 12.5 mg/kg/injection, schedule: Q04DX003 (ip), vehicle: saline

Measured: T/C

COc1cc2c(cc1OC)C13CCN4CC5=CCOC6CCN2C1C6C5CC43 (centres undefined)
inactive: [1] 101 % of control | [2] 109 % of control | [3] 86 % of control | [4] 106 % of control

CCOC(=O)OC(C#N)c1ccccc1 (centres undefined)
inactive: dose: 12.5 mg/kg/injection, schedule: Q01DX009 (ip), vehicle: saline with Tween-80 93 % of control | dose: 25.0 mg/kg/injection, schedule: Q01DX009 (ip), vehicle: saline with Tween-80 94 % of control

CCC(=O)OCC1CCC(COC(=O)CC)CC1 (centres undefined)
inactive: [5] 100 % of control | [6] 96 % of control | [7] 97 % of control

Cc1ccc(NC(=O)OCCOc2ccc(Cl)cc2)c([N+](=O)[O-])c1
inactive: dose: 50.0 mg/kg/injection, schedule: Q01DX009 (ip), vehicle: Klucel (hydroxypropylcellulose) (HPC) 97 % of control | [8] 87 % of control | [9] 99 % of control | [10] 90 % of control | [11] 104 % of control | [12] 90 % of control

CCSCc1cnc(N)nc1-c1ccccc1
inactive: [3] 97 % of control | [13] 94 % of control | [14] 86 % of control

CCOC(=O)C(=O)C(=O)OCC
inactive: dose: 100.0 mg/kg/injection, schedule: Q04DX002 (ip), vehicle: saline with Tween-80 101 % of control | dose: 200.0 mg/kg/injection, schedule: Q04DX002 (ip), vehicle: saline with Tween-80 107 % of control | dose: 400.0 mg/kg/injection, schedule: Q04DX002 (ip), vehicle: saline with Tween-80 88 % of control

Nc1nc2[nH]ncc2c(=O)[nH]1
inactive: dose: 50.0 mg/kg/injection, schedule: Q01DX001 (ip), vehicle: carboxymethylcellulose (CMC) 104 % of control | dose: 100.0 mg/kg/injection, schedule: Q01DX001 (ip), vehicle: carboxymethylcellulose (CMC) 107 % of control | dose: 200.0 mg/kg/injection, schedule: Q01DX001 (ip), vehicle: carboxymethylcellulose (CMC) 93 % of control | dose: 400.0 mg/kg/injection, schedule: Q01DX001 (ip), vehicle: carboxymethylcellulose (CMC) 96 % of control

Nc1ccc(CCc2ccc(S(=O)(=O)F)cc2)cc1
inactive: [15] 108 % of control | [16] 103 % of control | [17] 102 % of control

CCOC(=O)C1CN(C(C)(C)C)C(=O)C1=O (centres undefined)
inactive: [18] 106 % of control | [15] 102 % of control | [16] 108 % of control | [17] 100 % of control

CC(=O)NC(=O)CC(O)(c1ccccc1)c1ccccc1
inactive: dose: 100.0 mg/kg/injection, schedule: Q01DX009 (ip), vehicle: saline with Tween-80 96 % of control | dose: 200.0 mg/kg/injection, schedule: Q01DX009 (ip), vehicle: saline with Tween-80 91 % of control | dose: 400.0 mg/kg/injection, schedule: Q01DX009 (ip), vehicle: saline with Tween-80 92 % of control

CCCCCCCCCCCC(=O)OCCOCCOCCOCCOCCOCCOCCOCCOCCO
inactive: [15] 104 % of control | [16] 98 % of control | [17] 98 % of control

CCOC(=O)c1ccc(CCCCl)cc1
inactive: dose: 100.0 mg/kg/injection, schedule: Q01DX001 (ip), vehicle: Klucel (hydroxypropylcellulose) (HPC) 98 % of control | dose: 200.0 mg/kg/injection, schedule: Q01DX001 (ip), vehicle: Klucel (hydroxypropylcellulose) (HPC) 88 % of control | dose: 400.0 mg/kg/injection, schedule: Q01DX001 (ip), vehicle: Klucel (hydroxypropylcellulose) (HPC) 91 % of control

CCSCN(C)C
inactive: dose: 50.0 mg/kg/injection, schedule: Q01DX009 (ip), vehicle: saline 102 % of control | [2] 97 % of control | [15] 113 % of control | dose: 100.0 mg/kg/injection, schedule: Q01DX009 (ip), vehicle: saline 101 % of control | [4] 103 % of control | [16] 97 % of control | [19] 105 % of control

COC(=O)CCCCC(=O)OCC#CC#CCOC(=O)CCCCC(=O)OC
inactive: [8] 95 % of control | [9] 91 % of control | [10] 104 % of control | [11] 92 % of control | [20] 98 % of control | [12] 92 % of control

N#Cc1ccc[n+](CCc2c[nH]c3ccccc23)c1
inactive: dose: 75.0 mg/kg/injection, schedule: Q01DX001 (ip), vehicle: saline 102 % of control

O=C1c2ccccc2C(=O)N1CCCCCCCCCN1C(=O)c2ccccc2C1=O
inactive: [21] 113 % of control | [22] 90 % of control | [23] 90 % of control

N#CCCN/N=C\c1ccc2c(c1)OCO2
inactive: [18] 95 % of control | [15] 97 % of control | [16] 95 % of control | [17] 95 % of control

CCC[CH2][Sn]([CH2]C)([CH2]C)[O]C(C)=O
inactive: dose: 5.0 mg/kg/injection, schedule: Q01DX001 (ip), vehicle: saline with Tween-80 90 % of control | dose: 10.0 mg/kg/injection, schedule: Q01DX001 (ip), vehicle: saline with Tween-80 93 % of control

CCCSC1=C(N2CC2)C(=O)C(SCCC)=C(N2CC2)C1=O
inactive: dose: 6.25 mg/kg/injection, schedule: Q04DX003 (ip), vehicle: saline 98 % of control | [24] 104 % of control | [1] 97 % of control | [2] 103 % of control | [4] 108 % of control | [19] 116 % of control

CCC1(CC)N=C2OCCN2C1=O
inactive: dose: 12.5 mg/kg/injection, schedule: Q04DX003 (ip), vehicle: saline with Tween-80 97 % of control | dose: 25.0 mg/kg/injection, schedule: Q04DX003 (ip), vehicle: saline with Tween-80 95 % of control | dose: 50.0 mg/kg/injection, schedule: Q04DX003 (ip), vehicle: saline with Tween-80 97 % of control | [3] 94 % of control | [13] 91 % of control and 92 % of control | dose: 300.0 mg/kg/injection, schedule: Q04DX003 (ip), vehicle: saline with Tween-80 106 % of control

Cc1ccc([N+](=O)[O-])cc1NC(=O)NC(=O)c1ccccc1
inactive: [21] 92 % of control | [22] 95 % of control | [23] 97 % of control

Cc1ccc(C(=O)CCCc2ccccn2)cc1
inactive: [5] 98 % of control | [6] 100 % of control | [7] 87 % of control

CCCCCCCCOC(=O)c1ccccc1C(=O)OCCCCCCCC
inactive: [8] 96 % of control | [9] 97 % of control | [10] 94 % of control | [11] 93 % of control | [20] 96 % of control | [12] 92 % of control

NCNc1nc(NCN)nc(N(CN)CN)n1
inactive: [3] 92 % of control | [13] 88 % of control | [14] 88 % of control

O=[As](O)(O)Cc1cccc(F)c1
inactive: dose: 25.0 mg/kg/injection, schedule: Q04DX003 (ip), vehicle: Klucel (hydroxypropylcellulose) (HPC) 96 % of control | dose: 50.0 mg/kg/injection, schedule: Q04DX003 (ip), vehicle: Klucel (hydroxypropylcellulose) (HPC) 101 % of control | [9] 87 % of control

C1OC1C1CO1 (centres undefined)
inactive: dose: 6.25 mg/kg/injection, schedule: Q01DX009 (ip), vehicle: saline 92 % of control | dose: 10.0 mg/kg/injection, schedule: Q01DX001 (ip), vehicle: saline 106 % of control | dose: 12.5 mg/kg/injection, schedule: Q01DX009 (ip), vehicle: saline 104 % of control | [24] 110 % of control | dose: 20.0 mg/kg/injection, schedule: Q01DX001 (ip), vehicle: saline 103 % of control | dose: 25.0 mg/kg/injection, schedule: Q01DX009 (ip), vehicle: saline 114 % of control | [1] 119 % of control | dose: 40.0 mg/kg/injection, schedule: Q01DX001 (ip), vehicle: saline 114 % of control | dose: 44.0 mg/kg/injection, schedule: Q01DX001 (ip), vehicle: saline 105 % of control | [2] 105 % of control

— PubChem BioAssay AID248 (DTP/NCI, 2004)
